Measurements reported in PMC9385451 (International Journal for Parasitology: Drugs and Drug …, 2022).

Target: T1, Eimeria tenella aldolase 2 (EtALD2), fructose-1,6-bisphosphate aldolase (Eimeria tenella, UniProt U6KYI1)
T1 sequence (U6KYI1 1-368): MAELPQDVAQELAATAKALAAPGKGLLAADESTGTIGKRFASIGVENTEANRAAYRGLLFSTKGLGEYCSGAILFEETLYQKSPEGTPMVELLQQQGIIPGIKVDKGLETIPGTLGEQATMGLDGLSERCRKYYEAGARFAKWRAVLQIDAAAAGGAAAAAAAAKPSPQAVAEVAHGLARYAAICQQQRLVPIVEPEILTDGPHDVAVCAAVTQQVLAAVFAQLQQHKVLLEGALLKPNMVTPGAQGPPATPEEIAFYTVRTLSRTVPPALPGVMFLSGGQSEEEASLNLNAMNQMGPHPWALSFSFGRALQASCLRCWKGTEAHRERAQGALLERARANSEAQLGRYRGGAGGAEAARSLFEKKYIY
Assay type: biochemical

IC50: 10.4 µM
Compound: O=c1c(O)c(-c2ccc(O)cc2O)oc2cc(O)cc(O)c12 [morin]
